The target in experiment [1] is human GLP-1 receptor (hGLP-1R) (Homo sapiens, UniProt P43220). The experiment can be described thus: cAMP production (HTRF) in CHO cells expressing hGLP-1R. The format is cell-based. Further details: expressed in transfected cells. The method in brief:
(§1)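 Cells were resuspended in assay buffer at batch-optimized density, typically 1×10^5 cells/mL for hGLP-1R and 2×10^5 cells/mL for hGCGR. After 30 min incubation at room temperature with compound, cAMP was measured by two-step HTRF. EC50 values came from 4-parameter logistic fits of % Delta F.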

The target in experiment [2] is human glucagon receptor (hGCGR) (Homo sapiens, UniProt P47871). The experiment can be described thus: cAMP production (HTRF) in CHO cells expressing hGCGR. It is filed as cell-based. Further details: expressed in transfected cells. Conditions: cAMP, CHO cells, 0.1% BSA, geometric mean. In a few lines: as §1
Sequence of human glucagon receptor (hGCGR) (P47871 26-477): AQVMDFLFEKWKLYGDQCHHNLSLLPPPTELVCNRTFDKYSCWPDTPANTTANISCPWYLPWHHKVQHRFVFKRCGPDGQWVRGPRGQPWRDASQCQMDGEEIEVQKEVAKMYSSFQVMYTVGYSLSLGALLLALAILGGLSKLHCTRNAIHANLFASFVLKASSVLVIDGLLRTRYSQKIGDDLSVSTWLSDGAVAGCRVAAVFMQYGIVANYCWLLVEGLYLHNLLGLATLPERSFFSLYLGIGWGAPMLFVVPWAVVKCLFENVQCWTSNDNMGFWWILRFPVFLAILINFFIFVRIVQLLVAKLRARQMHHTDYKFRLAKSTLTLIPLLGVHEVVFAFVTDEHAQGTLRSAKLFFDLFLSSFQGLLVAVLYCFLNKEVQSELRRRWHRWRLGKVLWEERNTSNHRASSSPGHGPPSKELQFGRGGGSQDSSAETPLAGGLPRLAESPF
Setting [3] is: % GLP-1R activity relative to GLP-1 / % GlucR activity relative to glucagon.
[4] abbreviates: cAMP, CHO cells, 0.1% BSA, geometric mean, read-out: hGLP-1R EC50.

Read-outs that look alike come from different tables or passages of the source. Starred links: 1 amine or outer side, 2 acyl side, 3 side chain; linkers in the order of their positions; H or OH if unused. Non-standard residues stand in square brackets, D forms with d. Residues, ends and D or L forms follow the SMILES beside them. Groups on a side chain read outwards from the residue. *: point of attachment. C20 diacid = O=C(O)CCCCCCCCCCCCCCCCCCC(=O)*; C18 diacid = O=C(O)CCCCCCCCCCCCCCCCC(=O)*; γGlu = O=C(O)[C@H](CCC(=O)[*:2])N[*:1]; αMeF = C[C@](N)(Cc1ccccc1)C(=O)O; AEEA = NCCOCCOCC(=O)O; Aib = CC(C)(N)C(=O)O

Sequence of human GLP-1 receptor (hGLP-1R) (P43220 24-463): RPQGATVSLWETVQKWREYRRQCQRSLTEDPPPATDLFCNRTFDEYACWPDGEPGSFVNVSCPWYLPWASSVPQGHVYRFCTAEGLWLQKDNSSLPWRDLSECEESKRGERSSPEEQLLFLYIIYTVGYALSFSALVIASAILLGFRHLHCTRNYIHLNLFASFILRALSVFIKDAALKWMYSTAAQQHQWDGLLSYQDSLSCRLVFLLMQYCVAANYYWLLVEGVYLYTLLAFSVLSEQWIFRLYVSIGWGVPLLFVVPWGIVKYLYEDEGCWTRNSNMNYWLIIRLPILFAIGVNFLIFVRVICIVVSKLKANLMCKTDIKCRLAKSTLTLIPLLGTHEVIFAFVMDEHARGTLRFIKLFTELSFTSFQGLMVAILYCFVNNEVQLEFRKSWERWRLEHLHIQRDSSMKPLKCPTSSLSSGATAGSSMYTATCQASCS

The term EC50 denotes the concentration that produces a half-maximal response. Regarding `CC[C@H](C)[C@H](NC(=O)[C@H](Cc1c[nH]c2ccccc12)NC(=O)[C@H](CCCCNC(=O)COCCOCCNC(=O)COCCOCCNC(=O)CC[C@H](NC(=O)CCCCCCCCCCCCCCCCC(=O)O)C(=O)O)NC(=O)[C@@H](NC(=O)[C@H](Cc1ccccc1)NC(=O)[C@H](CC(=O)O)NC(=O)[C@H](CCC(N)=O)NC(=O)[C@H](C)NC(=O)[C@H](C)NC(=O)[C@H](CCC(N)=O)NC(=O)[C@H](CO)NC(=O)[C@H](CC(=O)O)NC(=O)[C@H](CC(C)C)NC(=O)[C@](C)(Cc1ccccc1)NC(=O)[C@H](CCCCN)NC(=O)[C@H](CO)NC(=O)[C@@H](NC(=O)[C@H](CC(=O)O)NC(=O)[C@H](CO)NC(=O)[C@@H](NC(=O)[C@](C)(Cc1ccccc1)NC(=O)[C@H](CO)NC(=O)CNC(=O)[C@@H](NC(=O)C(C)(C)NC(=O)[C@@H](N)Cc1c[nH]cn1)[C@@H](C)CC)[C@@H](C)O)C(C)C)C(C)C)C(=O)N[C@@H](C)C(=O)N[C@@H](CC(N)=O)C(=O)N[C@H](C(N)=O)[C@@H](C)O` [Peptide 358] (H-H[Aib]IGS[αMeF]TSDVSK[αMeF]LDSQAAQDFVK([AEEA-AEEA-γGlu-C18 diacid])WIANT-NH2; N-terminus assumed), the EC50 in experiment [1] (hGLP-1R EC50 (pM)) worked out at 74.9 pM; in experiment [2] (hGluc-R EC50 (pM)), 16000 pM.

Take `CC[C@H](C)[C@H](NC(=O)[C@H](Cc1c[nH]c2ccccc12)NC(=O)[C@H](CCCCNC(=O)COCCOCCNC(=O)COCCOCCNC(=O)CC[C@H](NC(=O)CCCCCCCCCCCCCCCCC(=O)O)C(=O)O)NC(=O)[C@@H](NC(=O)[C@H](Cc1ccccc1)NC(=O)[C@H](CC(=O)O)NC(=O)[C@H](CCC(N)=O)NC(=O)[C@H](C)NC(=O)[C@H](C)NC(=O)[C@H](CCCNC(=N)N)NC(=O)[C@H](CO)NC(=O)[C@H](CC(=O)O)NC(=O)[C@H](CC(C)C)NC(=O)[C@](C)(Cc1ccccc1)NC(=O)[C@H](CCCCN)NC(=O)[C@H](CO)NC(=O)[C@@H](NC(=O)[C@H](CC(=O)O)NC(=O)[C@H](CO)NC(=O)[C@@H](NC(=O)[C@](C)(Cc1ccccc1)NC(=O)[C@H](CO)NC(=O)CNC(=O)[C@@H](NC(=O)C(C)(C)NC(=O)[C@@H](N)Cc1c[nH]cn1)[C@@H](C)CC)[C@@H](C)O)C(C)C)C(C)C)C(=O)N[C@@H](C)C(=O)N[C@@H](CC(N)=O)C(=O)N[C@H](C(N)=O)[C@@H](C)O` [Peptide 359] (H-H[Aib]IGS[αMeF]TSDVSK[αMeF]LDSRAAQDFVK([AEEA-AEEA-γGlu-C18 diacid])WIANT-NH2): the “% Relative Potency Ratio” value in experiment [1] (setting [3]) turned out to be 216.6. Further, the EC50 in experiment [1] (setting [4]) came out at 46.1 pM; in experiment [2] (read-out: hGluc-R EC50), 5050 pM.

As to `CC[C@H](C)[C@H](NC(=O)[C@H](Cc1c[nH]c2ccccc12)NC(=O)[C@H](CCCCNC(=O)COCCOCCNC(=O)COCCOCCNC(=O)CC[C@H](NC(=O)CCCCCCCCCCCCCCCCCCC(=O)O)C(=O)O)NC(=O)[C@@H](NC(=O)[C@H](Cc1ccccc1)NC(=O)[C@H](CC(=O)O)NC(=O)[C@H](CCC(N)=O)NC(=O)[C@H](C)NC(=O)[C@H](C)NC(=O)[C@H](CCCNC(=N)N)NC(=O)[C@H](CO)NC(=O)[C@H](CC(=O)O)NC(=O)[C@H](CC(C)C)NC(=O)[C@](C)(Cc1ccccc1)NC(=O)[C@H](CCCCN)NC(=O)[C@H](CO)NC(=O)[C@@H](NC(=O)[C@H](CC(=O)O)NC(=O)[C@H](CO)NC(=O)[C@@H](NC(=O)[C@](C)(Cc1ccccc1)NC(=O)[C@H](CO)NC(=O)CNC(=O)[C@@H](NC(=O)C(C)(C)NC(=O)[C@@H](N)Cc1c[nH]cn1)[C@@H](C)CC)[C@@H](C)O)C(C)C)C(C)C)C(=O)N[C@@H](C)C(=O)N[C@@H](CC(N)=O)C(=O)N[C@H](C(N)=O)[C@@H](C)O` [Peptide 360] (H-H[Aib]IGS[αMeF]TSDVSK[αMeF]LDSRAAQDFVK([AEEA-AEEA-γGlu-C20 diacid])WIANT-NH2; N-terminus assumed), the “% Relative Potency Ratio” value in experiment [1] (setting [3]) was determined as 103.5. The EC50 was found to be 108 pM in experiment [1] (setting [4]) and 5640 pM in experiment [2] (read-out: hGluc-R EC50).

Consider `CC[C@H](C)[C@H](NC(=O)[C@H](Cc1c[nH]c2ccccc12)NC(=O)[C@H](CCCCNC(=O)COCCOCCNC(=O)COCCOCCNC(=O)CC[C@H](NC(=O)CC[C@H](NC(=O)CCCCCCCCCCCCCCCCC(=O)O)C(=O)O)C(=O)O)NC(=O)[C@@H](NC(=O)[C@H](Cc1ccccc1)NC(=O)[C@H](CC(=O)O)NC(=O)[C@H](CCC(N)=O)NC(=O)[C@H](C)NC(=O)[C@H](C)NC(=O)[C@H](CCCNC(=N)N)NC(=O)[C@H](CO)NC(=O)[C@H](CC(=O)O)NC(=O)[C@H](CC(C)C)NC(=O)[C@](C)(Cc1ccccc1)NC(=O)[C@H](CCCCN)NC(=O)[C@H](CO)NC(=O)[C@@H](NC(=O)[C@H](CC(=O)O)NC(=O)[C@H](CO)NC(=O)[C@@H](NC(=O)[C@](C)(Cc1ccccc1)NC(=O)[C@H](CO)NC(=O)CNC(=O)[C@H](Cc1c[nH]cn1)NC(=O)C(C)(C)NC(=O)[C@@H](N)Cc1c[nH]cn1)[C@@H](C)O)C(C)C)C(C)C)C(=O)N[C@@H](C)C(=O)N[C@@H](CC(N)=O)C(=O)N[C@H](C(N)=O)[C@@H](C)O` [Peptide 362] (H-H[Aib]HGS[αMeF]TSDVSK[αMeF]LDSRAAQDFVK([AEEA-AEEA-γGlu-γGlu-C18 diacid])WIANT-NH2; N-terminus assumed), for which, in experiment [1] (setting [3]), the “% Relative Potency Ratio” value was determined as 1.5. Also, the EC50 in experiment [1] (setting [4]) was 54.8 pM; in experiment [2] (read-out: hGluc-R EC50) it was 42.8 pM.

For the molecule `CC[C@H](C)[C@H](NC(=O)[C@H](Cc1c[nH]c2ccccc12)NC(=O)[C@H](CCCCNC(=O)COCCOCCNC(=O)COCCOCCNC(=O)CC[C@H](NC(=O)CC[C@H](NC(=O)CCCCCCCCCCCCCCCCC(=O)O)C(=O)O)C(=O)O)NC(=O)[C@@H](NC(=O)[C@H](Cc1ccccc1)NC(=O)[C@H](CC(=O)O)NC(=O)[C@H](CCC(N)=O)NC(=O)[C@H](C)NC(=O)[C@H](C)NC(=O)[C@H](CCCNC(=N)N)NC(=O)[C@H](CO)NC(=O)[C@H](CC(=O)O)NC(=O)[C@H](CC(C)C)NC(=O)[C@](C)(Cc1ccccc1)NC(=O)[C@H](CCCCN)NC(=O)[C@H](CO)NC(=O)[C@@H](NC(=O)[C@H](CC(=O)O)NC(=O)[C@H](CO)NC(=O)[C@@H](NC(=O)[C@](C)(Cc1ccccc1)NC(=O)[C@H](CO)NC(=O)CNC(=O)[C@H](Cc1c[nH]cn1)NC(=O)C(C)(C)NC(=O)[C@@H](N)Cc1c[nH]cn1)[C@@H](C)O)C(C)C)C(C)C)C(=O)N[C@@H](C)C(=O)N[C@@H](CC(N)=O)C(=O)N[C@H](C(=O)NCC(N)=O)[C@@H](C)O` [Peptide 363] (H-H[Aib]HGS[αMeF]TSDVSK[αMeF]LDSRAAQDFVK([AEEA-AEEA-γGlu-γGlu-C18 diacid])WIANTG-NH2; N-terminus assumed), the “% Relative Potency Ratio” value in experiment [1] (setting [3]) was found to be 5.1. In addition, the figures for the concentration giving a half-maximal response (EC50) in experiment [1] (setting [4]) and in experiment [2] (read-out: hGluc-R EC50) were 18.3 pM and 47.5 pM, respectively.

`CC[C@H](C)[C@H](NC(=O)[C@H](Cc1c[nH]c2ccccc12)NC(=O)[C@H](CCCCNC(=O)COCCOCCNC(=O)COCCOCCNC(=O)CC[C@H](NC(=O)CCCCCCCCCCCCCCCCC(=O)O)C(=O)O)NC(=O)[C@@H](NC(=O)[C@H](Cc1ccccc1)NC(=O)[C@H](CC(=O)O)NC(=O)[C@H](CCC(N)=O)NC(=O)[C@H](C)NC(=O)C(C)(C)NC(=O)[C@H](CCCNC(=N)N)NC(=O)[C@H](CO)NC(=O)[C@H](CC(=O)O)NC(=O)[C@H](CC(C)C)NC(=O)[C@](C)(Cc1ccccc1)NC(=O)[C@H](CCCCN)NC(=O)[C@H](CO)NC(=O)[C@@H](NC(=O)[C@H](CC(=O)O)NC(=O)[C@H](CO)NC(=O)[C@@H](NC(=O)[C@](C)(Cc1ccccc1)NC(=O)[C@H](CO)NC(=O)CNC(=O)[C@H](Cc1c[nH]cn1)NC(=O)C(C)(C)NC(=O)[C@@H](N)Cc1c[nH]cn1)[C@@H](C)O)C(C)C)C(C)C)C(=O)N[C@@H](C)C(=O)N[C@@H](CC(N)=O)C(=O)N[C@H](C(N)=O)[C@@H](C)O` [Peptide 365, H(Aib)HGS(αMePhe)TSDVSK(αMePhe)LDSR(Aib)AQDFVK(O2Oc-O2Oc-γE-C18diacid)24WIANT-amide] (H-H[Aib]HGS[αMeF]TSDVSK[αMeF]LDSR[Aib]AQDFVK([AEEA-AEEA-γGlu-C18 diacid])WIANT-NH2; N-terminus assumed): in experiment [1], the “% Relative Potency Ratio” value was 0.3. The EC50 in experiment [1] (setting [4]) came to 51.3 pM; in experiment [2] (hGluc-R EC50 (pM)), 8.77 pM.

For `CC[C@H](C)[C@H](NC(=O)[C@H](Cc1c[nH]c2ccccc12)NC(=O)[C@H](CCCCNC(=O)COCCOCCNC(=O)COCCOCCNC(=O)CC[C@H](NC(=O)CCCCCCCCCCCCCCCCCCC(=O)O)C(=O)O)NC(=O)[C@@H](NC(=O)[C@H](Cc1ccccc1)NC(=O)[C@H](CC(=O)O)NC(=O)[C@H](CCC(N)=O)NC(=O)[C@H](C)NC(=O)C(C)(C)NC(=O)[C@H](CCCNC(=N)N)NC(=O)[C@H](CO)NC(=O)[C@H](CC(=O)O)NC(=O)[C@H](CC(C)C)NC(=O)[C@](C)(Cc1ccccc1)NC(=O)[C@H](CCCCN)NC(=O)[C@H](CO)NC(=O)[C@@H](NC(=O)[C@H](CC(=O)O)NC(=O)[C@H](CO)NC(=O)[C@@H](NC(=O)[C@](C)(Cc1ccccc1)NC(=O)[C@H](CO)NC(=O)CNC(=O)[C@H](Cc1c[nH]cn1)NC(=O)C(C)(C)NC(=O)[C@@H](N)Cc1c[nH]cn1)[C@@H](C)O)C(C)C)C(C)C)C(=O)N[C@@H](C)C(=O)N[C@@H](CC(N)=O)C(=O)N[C@H](C(N)=O)[C@@H](C)O` [Peptide 368, H(Aib)HGS(αMePhe)TSDVSK(αMePhe)LDSR(Aib)AQDFVK(O2OC-O2OC-γE-C20diacid)24WIANT-amide] (H-H[Aib]HGS[αMeF]TSDVSK[αMeF]LDSR[Aib]AQDFVK([AEEA-AEEA-γGlu-C20 diacid])WIANT-NH2), the “% Relative Potency Ratio” value in experiment [1] (setting [3]) was 3.1. For the same molecule, the EC50 in experiment [1] (setting [4]) is 186 pM; in experiment [2] (read-out: hGluc-R EC50), 290 pM.

Source of the values: patent publication US20250353891A1 (MEDIMMUNE LIMITED, priority 2022, published 2025).
